From US9045415B2, “Targeting of EWS-FLI1 as anti-tumor therapy” (Georgetown University, priority 2006, dated 2015)
Residues, ends and D or L forms follow the SMILES beside them. *: point of attachment. FITC = O=C1OC2(c3ccc(O)cc3Oc3cc(O)ccc32)c2ccc(NC(=S)*)cc21

Columns and labels:
CBP (aa 1680-1890) = CBP (aa 1680-1890) (Homo sapiens, UniProt Q92793); assay: Competitive ELISA, RHA binding to CBP; details: RHA 4 nM, E9RP 0.01-30 μM
Protocol: (§1) E9RP is the peptide region of RHA (E9R; SEQ ID NO: 29) fused to the Penetratin peptide (from the Antennapedia homeodomain; SEQ ID NO: 34). In FIG. 5A, E9RP was used in a competition experiment for blocking binding of RHA to EWS-FLI1. Wells were coated with 500 ng EWS-FLI1. RHA (4 nM) was added on to wells in the presence of E9RP (0.01-30 μM). In FIG. 5B, wells were coated with 500 ng/well recombinant CBP. RHA (4 nM) was added to wells with E9RP (0.01-30 μM).
(§2) E9RP was evaluated for the ability to block RHA from binding to EWS-FLI1 using both competitive ELISA assay and solution immunoprecipitation assays. In addition, specificity of interaction was evaluated by disrupting EWS-FLI1 binding from RHA without interfering with other RHA binding proteins. Creb-binding protein (CBP, p300) is critical to cellular basal transcription, so it was determined if a peptide that would disrupt EWS-FLI1 binding from RHA could also disrupt CBP binding.

RHA binding to EWS-FLI1 [1] = assay: Solution immunoprecipitation of GST-RHA with recombinant EWS-FLI1; set-up: species or system human
Protocol: E9RP is the peptide region of RHA (E9R; SEQ ID NO: 29) fused to the Penetratin peptide (from the Antennapedia homeodomain; SEQ ID NO: 34). Immunoprecipitation of GST-RHA using recombinant EWS-FLI1 bound to a FLI1 antibody. […] E9RP is the sequence of aa 823-832 of human RHA that were synthesized.
(§3) In FIG. 13A, recombinant EWS-FLI1 was treated with NSC635437 for 30 minutes. GST-RHA (630-1020) was added and the complexes were then precipitated with antibody to EWS-FLI1 and Protein G beads. Resolved complexes showing the immunoprecipitated complex control without compound are in lanes 3 (0.1% DMSO) and 5 (0.01% DMSO). […] ESFT TC32 (◯) and neuroblastoma SK-N-AS (▪) were grown for 72 hours in the continuous presence of NSC635437. Cells were incubated in MTT reagent for 4 hours and the dried precipitate was dissolved isopropanol and the absorbance read at 570 nm. Each cell line was standardized to the growth of the DMSO control.
Protein lysates and immunoprecipitations were performed as previously published (Uren et al (2005)). Recombinant GST-RHA (647-1075) was prepared from crude bacterial extracts without further purification.
Reagents were developed to block RHA binding to EWS-FLI1 since RHA is necessary for optimal EWS-FLI1 activity. The E9R peptide corresponds to amino acids 823 to 832, located in the proximal HA2 region of RHA (FIG. 29A). A cell-free protein interaction assay was developed to test whether E9R peptide inhibits RHA binding to EWS-FLI1. […] It was determined whether disrupted EWS-FLI1/RHA binding inhibited cell growth.

TC32 cells = assay: Monolayer cell growth (MTT or WST), TC32; type: cell-based; details: TC32 monolayer, 10 μM
Protocol: as §3
(§4) FIG. 30 provides data to show E9R peptide prevents EWS-FLI1 binding to RHA with specific detrimental effects upon ESFT growth and transformation. […] Scale bar equals 20 μm. […] Only expression of EGFP-E9R in TC71 reduced anchorage independent growth. […] Scale bar equals 20 μm.
FIG. 33 provides data showing YK-4-279 is potent and specific inhibitor of ESFT. […] Cell number was measured by MTT or WST reduction after seven days in culture. […] FIG. 33D cell lines expressing EWS-FLI1 compared to non-EWS-FLI1 malignant cell lines following 3 days in culture to establish the IC50 using WST assay. […] Graph plots level of fluorescence in treated divided by untreated lysate. […] Scale bar equals 200 μm.

[2] = system: ESFT cell lines TC32 (ESFT 1) and 5838 (ESFT 2); assay: Peptide growth inhibition, ESFT cell lines 1 and 2; type: cell-based; details: 10 μM on days 0, 3 and 5; seven days
Excerpt: (§5) FIGS. 8A-E show E9RP inhibits ESFT cell growth. In FIGS. 8A and 8B, E9RP is the peptide region of RHA (SEQ ID NO:29) fused to the Penetratin peptide (from the Antennapedia homeodomain; SEQ ID NO:34) and contains amino-terminal fluorescein (FITC). […] Neither lipids nor electricity were used for transduction of peptides into cells. Confocal microscopy identified peptide throughout cells with nuclear uptake. Nuclear uptake was confirmed by DAPI staining. […] Cell lines were placed in 96-well plates with either vehicle alone (●), or E9RP (10 μM) on days 0, 3 and 5 (▴). No lipid or other transfection method was utilized. This represents two experiments with similar results. FIG. 8D depicts dose response of ESFT 1 to either wild-type or single amino-acid mutant peptides. (▪) wild-type E9RP, (E9R (SEQ ID NO:29) fused to the Penetratin peptide (SEQ ID NO:34)), (▾)(E9RP (P2A peptide (SEQ ID NO:30) fused to the Penetratin peptide (SEQ ID NO:34)), (▴)E9RP (D5A peptide (SEQ ID NO:31) fused to the Penetratin peptide (SEQ ID NO:34)). Growth normalized to treating cells with the 16 aa Antp sequence alone (SEQ ID NO:34). FIG. 8E is a comparison of wild-type versus mutant peptides in ESFT and NB cells.

RHA binding to EWS-FLI1 [3] = assay: Competitive ELISA, RHA binding to EWS-FLI1; details: RHA 4 nM, E9RP 0.01-30 μM; read-out: IC50, prevention of RHA binding to EWS-FLI1
Protocol: as §1, §2

[4] = system: two additional sarcoma cell lines, lacking EWS-FLI1; assay: Peptide growth inhibition, additional sarcoma cell lines; type: cell-based; details: data not shown
[5] = system: neuroblastoma SKNAS cells; assay: Monolayer cell growth, neuroblastoma; type: cell-based; details: E9RP 10 μM; seven days
Excerpt: as §5, §3, §4

ESFT cells TC71 = assay: Xenografts of TC71 cells transfected with E9R expression plasmids; type: in vivo, mice; details: pGE9R vs pGE9R-D5A, 26 days
Protocol: ESFT cells TC71 were transfected with pGE9R (wild-type sequence peptide (SEQ ID NO: 29)) or pGE9R-D5A (control, mutated peptide; D5A (SEQ ID NO: 31)). In FIG. 10A, fluorescent micrographs of transfected cells after 4 days in culture are presented. […] Bar equals 300 microns. In FIG. 10B, each group contains six mice. Mice legs were measured every 2-3 days. Tumors appeared in 2 weeks. The experiment was terminated after 26 days when the largest tumor caused the mouse to limp. Tumor volumes were calculated according to (D×d2/6)×π formula, where large diameter of tumor mass is D and small diameter is d. 2-way ANOVA analysis, followed by Bonferroni correction for multiple variables, the difference in the two growth curves was highly significant, p=0.016.
The ability of the E9R peptide sequence to prevent ESFT tumorigenesis in a pilot murine xenograft experiment was determined. As a control peptide, the same mutation that prevented wild-type RHA from binding to EWS-FLI1 (D827A, noted in the 10-mer peptide as E9R-D5A) was created. ESFT cells were transfected with either pGE9R or pGE9R-D5A by electroporation. A transfection efficiency of greater than 80% using fluorescent microscopy (FIG. 10A) was observed. […] Every two to three days, each animal's thigh was measured in three dimensions, and tumor volumes were calculated. […]

rhabdomyosarcoma cells = assay: Soft-agar anchorage-independent growth, rhabdomyosarcoma cells expressing E9R; type: cell-based; details: E9R expression
Excerpt: (§6) Plasmids that express E9R fused to enhanced green fluorescent protein (EGFP) were transfected into either Ewing's Sarcoma (TC71) or rhabdomyosarcoma (RP) cells and placed in soft-agar for anchorage-independent growth. The pGE9R plasmid diffusely expressed E9R while the pGCE9R plasmid contained a nuclear export sequence to prevent expressed peptide from entering the nucleus. The transfected cells were placed in soft agar culture for 2 weeks and stained with MTT. When E9R was diffusely expressed, including the nucleus, ESFT (containing EWS-FLI1) soft-agar colony growth was suppressed.
(§7) Since the Antp peptides added to media would not remain in the cells for 2 weeks during soft-agar colony growth, expression peptides were used to provide continuous exposure to peptide. A pair of expression plasmids with cloning sites downstream of the enhanced green fluorescent protein (EGFP) was obtained; the pG plasmid contained no localizing sequence and was expressed throughout the cells (FIG. 9, left panels). The pGC plasmids contained a nuclear export sequence that blocked peptide transport into the nucleus (FIG. 9, right panels). The E9R DNA sequence was synthesized and the hybridized oligodeoxynucleotides were inserted into the cloning site downstream of either EGFP or EGFP and nuclear export sequence.

EWS-FLI1 = assay: SPR displacement assay of E9R from EWS-FLI1; type: binding
Excerpt: FIG. 31 provides data showing a small molecule binding to EWS-FLI1 and displaces E9R from EWS-FLI1. […] Aromatic functionalization produced YK-4-279 a para-methoxy derivative of NSC635437. […] A FLI1 antibody complexed EWS-FLI1 and precipitated it from the solution.
An aromatic optimization strategy was used to design analogs to improve upon the activity of NSC635437.

[6] = system: SKNAS (neuroblastoma) cells; assay: Soft-agar anchorage-independent growth, SKNAS expressing E9R; type: cell-based; details: expressed E9R
Excerpt: as §4

TC71 (ESFT) cells = assay: Soft-agar anchorage-independent growth, TC71 expressing E9R; type: cell-based
Excerpt: as §6, §4
as §7, with “The E9R DNA sequence was synthesized and the hybridized oligodeoxynucleotides were inserted into the cloning site downstream of either EGFP or EGFP and nuclear export sequence.” left out

Sequence of CBP (aa 1680-1890) (Q92793 1680-1890): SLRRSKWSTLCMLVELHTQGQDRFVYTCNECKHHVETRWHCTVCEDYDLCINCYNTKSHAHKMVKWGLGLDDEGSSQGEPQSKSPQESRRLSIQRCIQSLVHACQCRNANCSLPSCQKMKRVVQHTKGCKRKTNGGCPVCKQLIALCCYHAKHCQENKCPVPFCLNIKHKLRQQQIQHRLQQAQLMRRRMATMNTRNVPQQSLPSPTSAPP

effect upon the binding of CBP (CBP (aa 1680-1890)) | IC50 (RHA binding to EWS-FLI1 [1]; GST-RHA (630-1020), read-out: IC50 to prevent complex formation) | IC50 (RHA binding to EWS-FLI1 [3]) | binding of E9R to EWS-FLI1 (EWS-FLI1; 32 μM E9R alone) | binding of E9R to EWS-FLI1 (EWS-FLI1; 64 μM E9R alone) | concentration giving decreased association to 50% (RHA binding to EWS-FLI1 [1]; GST-RHA (647-1075) and full-length EWS-FLI1) | Compound | ESFT cell growth with fluorescein conjugated peptides (TC32 cells) | cell growth [2] | cell growth [4] | cell growth [5] | xenograft growth of cells expressing peptide (ESFT cells TC71) | soft agar colony growth (rhabdomyosarcoma cells) | anchorage-independent growth [6] | reduction of TC71 colony formation (TC71 (ESFT) cells; E9R expressed as EGFP fusion throughout the cell) | soft agar colony growth (TC71 (ESFT) cells; E9R expressed throughout cells (pGE9R))
lacking a dose-dependent effect | ~100 nM | ~200 nM |  |  |  | CC[C@H](C)[C@H](NC(=O)[C@H](CCCCN)NC(=O)[C@@H](NC(=O)[C@H](CCC(N)=O)NC(=O)[C@H](CCCNC(=N)N)NC(=S)Nc1ccc2c(c1)C(=O)OC21c2ccc(O)cc2Oc2cc(O)ccc21)[C@@H](C)CC)C(=O)N[C@@H](Cc1c[nH]c2ccccc12)C(=O)N[C@@H](Cc1ccccc1)C(=O)N[C@@H](CCC(N)=O)C(=O)N[C@@H](CC(N)=O)C(=O)N[C@@H](CCCNC(=N)N)C(=O)N[C@@H](CCCNC(=N)N)C(=O)N[C@@H](CCSC)C(=O)N[C@@H](CCCCN)C(=O)N[C@@H](Cc1c[nH]c2ccccc12)C(=O)N[C@@H](CCCCN)C(=O)N[C@@H](CCCCN)C(=O)N1CCC[C@H]1C(=O)N1CCC[C@H]1C(=O)N1CCC[C@H]1C(=O)N[C@@H](CC(C)C)C(=O)N[C@@H](CC(=O)O)C(=O)N[C@@H](C)C(=O)N[C@H](C(=O)N[C@H](C(=O)N[C@@H](CCC(=O)O)C(=O)N[C@@H](C)C(=O)O)[C@@H](C)CC)C(C)C [E9RP] ({FITC}-RQIKIWFQNRRMKWKKPPPLDAVIEA-OH; C-terminus assumed) | significantly reduced ESFT cell growth | inhibited the growth | not growth inhibited | did not affect the growth |  |  |  |  | 
 |  |  | 13 R.U. | 17 R.U. | 0.1 µM | PPPLDAVIEA [E9R, peptide corresponding to aa 823-832 of human RHA] |  |  |  |  | reduces ESFT xenografts growth | not reduced | not affected | 95% | suppressed
